Test results published in patent publication US20220144815A1, “1,3,4-OXADIAZOLES AND THEIR DERIVATIVES AS NEW ANTIFUNGAL AGENTS” (Bayer Aktiengesellschaft, priority 2018, published 2022).
Read-outs that look alike come from different tables or passages of the source.

Experiment: Log P by HPLC on reversed phase columns, method [a] (EEC directive 79/831 Annex V.A8)
Type: physicochemical
Outline: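 Log P calibrated with C3–C16 straight-chain alkan-2-ones of known Log P, interpolating linearly between retention times. Method per EEC 79/831 Annex V.A8: reversed-phase LC-UV in the acidic range, water/0.1% formic acid and acetonitrile gradient from 10% to 95% acetonitrile.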

[1] = reversed phase HPLC column, log P determined according to method [a] (HPLC on reversed phase columns), read-out: logP
[2] = reversed phase HPLC column, method [a], HPLC on reversed phase columns, read-out: logP
[3] = log P determined according to method [a] (HPLC on reversed phase columns)

| Structure (SMILES) | chromatographic logP [2] | logP [3] | other results |
| --- | --- | --- | --- |
| Fc1ccccc1Nc1ncc(-c2nnc(C(F)(F)F)s2)cn1 [I.130, N-(2-fluorophenyl)-5-[5-(trifluoromethyl)-1,3,4-thiadiazol-2-yl]pyrimidin-2-amine] |  |  | chromatographic logP [1]: 3.3 |
| FC(F)c1nnc(-c2cnc(NC3CCCC3c3ccccc3)nc2)o1 (racemic) [I.217, 5-[5-(difluoromethyl)-1,3,4-oxadiazol-2-yl]-N-[(1RS)-2-phenylcyclopentyl]pyrimidin-2-amine] | 3.44 |  |  |
| CNC(=O)c1ccc(-c2nnc(C(F)F)o2)cn1 [Example I-033] |  | 1.32 |  |
| FC(F)c1nnc(-c2cnc(NC3(c4ccc(Cl)cc4)CCC3)nc2)o1 [I.237, N-[1-(4-chlorophenyl)cyclobutyl]-5-[5-(difluoromethyl)-1,3,4-oxadiazol-2-yl]pyrimidin-2-amine] | 3.71 |  |  |
| FC(F)c1nnc(-c2ccc(-c3nnc(C(F)F)o3)cc2)o1 [Example I-019] |  | 2.44 |  |
| C#CCNc1ncc(-c2nnc(C(F)F)o2)cn1 [Example I-063] |  | 1.59 |  |
| FC(F)c1nnc(-c2cnc(Cc3ccccc3)nc2)o1 [Example I-075] |  | 2.49 |  |
| FC(F)c1nnc(-c2ccc(-n3cccn3)nc2)o1 [Example I-036] |  | 2.31 |  |
| FC(F)c1nnc(-c2ccc(COc3ccc(Cl)cc3)cc2)o1 [Example I-024] |  | 4.03 |  |
| Fc1ccc(C2(Nc3ccc(-c4nnc(C(F)F)o4)cn3)CC2)cc1 [Example I-054] |  | 2.79 |  |
| CCOC(=O)c1cnc(NC2(c3ccccc3)CCC2)nc1 [ethyl 2-[(1-phenylcyclobutyl)amino]pyrimidine-5-carboxylate] |  |  | chromatographic logP (reversed phase HPLC column, Method A: LC-UV, acidic range, 0.1% formic acid in water and acetonitrile, read-out: Log P): 3.53 |
| O=C(NCC1CC1)c1ccc(-c2nnc(C(F)F)o2)cn1 [Example I-046] |  | 2.16 |  |
| Nc1ncc(-c2nnc(C(F)F)o2)cn1 [Example I-059] |  | 0.75 |  |
| COc1ccc(C(C)Nc2ncc(-c3nnc(C(F)F)o3)cn2)cc1 (racemic) [I.207, 5-[5-(difluoromethyl)-1,3,4-oxadiazol-2-yl]-N-[(1RS)-1-(4-methoxyphenyl)ethyl]pyrimidin-2-amine] | 2.75 |  |  |
| Fc1ccccc1C1(Nc2ncc(-c3nnc(C(F)(F)Cl)o3)cn2)CC1 [I.179, 5-{5-[chloro(difluoro)methyl]-1,3,4-oxadiazol-2-yl}-N-[1-(2-fluorophenyl)cyclopropyl]pyrimidin-2-amine] | 3.76 |  |  |
| FC(F)c1nnc(-c2cnc(-c3cccc(Cl)c3)nc2)o1 [I.100, 2-(3-chlorophenyl)-5-[5-(difluoromethyl)-1,3,4-oxadiazol-2-yl]pyrimidine] |  |  | chromatographic logP [1]: 4.21 |
| Cc1ccc(C(C)(CO)Nc2ncc(-c3nnc(C(F)F)o3)cn2)cc1C (racemic) [I.235, (2RS)-2-({5-[5-(difluoromethyl)-1,3,4-oxadiazol-2-yl]pyrimidin-2-yl}amino)-2-(3,4-dimethylphenyl)propan-1-ol] | 2.68 |  |  |
| CC(Nc1ncc(-c2nnc(C(F)F)o2)cn1)C1CCCCC1 (racemic) [I.193, N-[(1RS)-1-cyclohexylethyl]-5-[5-(difluoromethyl)-1,3,4-oxadiazol-2-yl]pyrimidin-2-amine] | 3.74 |  |  |
| O=C(O)c1ccc(-c2nnc(C(F)F)o2)cc1 [Example I-001] |  | 1.66 |  |
| FC(F)c1nnc(-c2cnc(NC3(c4cccc(C(F)(F)F)c4)CC3)nc2)o1 [I.249, 5-[5-(difluoromethyl)-1,3,4-oxadiazol-2-yl]-N-{1-[3-(trifluoromethyl)phenyl]cyclopropyl}pyrimidin-2-amine] | 3.24 |  |  |
| FC(F)c1nnc(-c2cnc(-c3ccnc(Cl)c3)nc2)o1 [I.102, 2-(2-chloropyridin-4-yl)-5-[5-(difluoromethyl)-1,3,4-oxadiazol-2-yl]pyrimidine] |  |  | chromatographic logP [1]: 2.59 |
| CC(Nc1ccc(-c2nnc(C(F)F)o2)cn1)c1ccc(F)cc1 (centres unmarked) [Example I-052] |  | 2.95 |  |
| FC(F)c1nnc(-c2cnc(NCc3ccccc3)nc2)o1 [Example I-088] |  | 2.57 |  |
| CN(C)NC(=O)c1ccc(-c2nnc(C(F)F)o2)cn1 [Example I-042] |  | 1.14 |  |
| Fc1ccccc1Nc1ccc(-c2nnc(C(F)(F)Cl)o2)cn1 [Example I-053] |  | 3.54 |  |

| Structure (SMILES) | chromatographic logP [2] | logP [3] | other results |
| --- | --- | --- | --- |
| CC(C)(C)OC(=O)N1CCN(c2ccc(-c3nnc(C(F)F)o3)cn2)CC1 [Example I-058] |  | 3.25 |  |
| FC(F)c1nnc(-c2cnc(NC3(c4ccc(Cl)cc4Cl)CC3)nc2)o1 [I.255, N-[1-(2,4-dichlorophenyl)cyclopropyl]-5-[5-(difluoromethyl)-1,3,4-oxadiazol-2-yl]pyrimidin-2-amine] | 4.05 |  |  |
| CN(C(=O)c1ccc(-c2nnc(C(F)(F)F)o2)cc1)c1ccccc1 [Example I-026] |  | 3.04 |  |
| FC(F)c1nnc(-c2cnc(NC3(c4cccc(OC(F)(F)F)c4)CC3)nc2)o1 [I.262, 5-[5-(difluoromethyl)-1,3,4-oxadiazol-2-yl]-N-{1-[3-(trifluoromethoxy)phenyl]cyclopropyl}pyrimidin-2-amine] | 3.37 |  |  |
| CC1(C2(Nc3ncc(-c4nnc(C(F)F)o4)cn3)CC2)CC1 [Example I-097] |  | 2.89 |  |
| CC(C)(CNc1ncc(-c2nnc(C(F)F)o2)cn1)c1ccc(F)cc1 [I.224, 5-[5-(difluoromethyl)-1,3,4-oxadiazol-2-yl]-N-[2-(4-fluorophenyl)-2-methylpropyl]pyrimidin-2-amine] | 3.44 |  |  |
| FC(F)c1nnc(-c2cnc(NC3(c4cc(Cl)ccn4)CC3)nc2)o1 [I.228, N-[1-(4-chloropyridin-2-yl)cyclopropyl]-5-[5-(difluoromethyl)-1,3,4-oxadiazol-2-yl]pyrimidin-2-amine] | 2.31 |  |  |
| FC(F)c1nnc(-c2cnc(N3Cc4ccccc4C3)nc2)o1 [I.106, 2-{5-[5-(difluoromethyl)-1,3,4-oxadiazol-2-yl]pyrimidin-2-yl}isoindoline] |  |  | chromatographic logP [1]: 3.1 |
| FC(F)Oc1ccccc1C1(Nc2ncc(-c3nnc(C(F)F)o3)cn2)CC1 [I.248, N-{1-[2-(difluoromethoxy)phenyl]cyclopropyl}-5-[5-(difluoromethyl)-1,3,4-oxadiazol-2-yl]pyrimidin-2-amine] | 3.21 |  |  |
| COc1ccccc1Nc1ncc(-c2nnc(C(F)F)o2)cn1 [I.109, 5-[5-(difluoromethyl)-1,3,4-oxadiazol-2-yl]-N-(2-methoxyphenyl)pyrimidin-2-amine] |  |  | chromatographic logP [1]: 2.8 |
| FC(F)c1nnc(-c2cnc(NC3(c4ccccc4Cl)CC3)nc2)o1 [I.163, N-[1-(2-chlorophenyl)cyclopropyl]-5-[5-(difluoromethyl)-1,3,4-oxadiazol-2-yl]pyrimidin-2-amine] |  |  | chromatographic logP [1]: 3.34 |
| COc1ccccc1C(C)Nc1ncc(-c2nnc(C(F)F)o2)cn1 (racemic) [I.209, 5-[5-(difluoromethyl)-1,3,4-oxadiazol-2-yl]-N-[(1RS)-1-(2-methoxyphenyl)ethyl]pyrimidin-2-amine] | 2.95 |  |  |
| O=C(c1ccc(F)cc1F)N(C(=O)c1ccc(F)cc1F)c1ncc(-c2nnc(C(F)F)o2)cn1 [I.185, N-(2,4-difluorobenzoyl)-N-{5-[5-(difluoromethyl)-1,3,4-oxadiazol-2-yl]pyrimidin-2-yl}-2,4-difluorobenzamide] | 3.59 |  |  |
| CC(Nc1ncc(-c2nnc(C(F)F)o2)cn1)c1cscn1 (racemic) [I.194, 5-[5-(difluoromethyl)-1,3,4-oxadiazol-2-yl]-N-[(1RS)-1-(1,3-thiazol-4-yl)ethyl]pyrimidin-2-amine] | 1.8 |  |  |
| CCC(C)(Nc1ncc(-c2nnc(C(F)F)o2)cn1)c1ccccc1 (centres unmarked) [I.138, 5-[5-(difluoromethyl)-1,3,4-oxadiazol-2-yl]-N-(2-phenylbutan-2-yl)pyrimidin-2-amine] |  |  | chromatographic logP [1]: 3.5 |
| FC(F)c1nnc(-c2cnc(NC(Cc3ccccc3)c3ccccc3)nc2)o1 (racemic) [I.245, 5-[5-(difluoromethyl)-1,3,4-oxadiazol-2-yl]-N-[(1RS)-1,2-diphenylethyl]pyrimidin-2-amine] | 3.68 |  |  |
| FC(F)c1nnc(-c2cnc(NC3(c4cccc(Cl)c4)CCCCC3)nc2)o1 [I.258, N-[1-(3-chlorophenyl)cyclohexyl]-5-[5-(difluoromethyl)-1,3,4-oxadiazol-2-yl]pyrimidin-2-amine] | 4.35 |  |  |
| FC(F)c1nnc(-c2ccc(Br)cc2)o1 [Example I-009] |  | 2.89 |  |
| FC(F)c1nnc(-c2cnc(NC3(c4cccs4)CCCC3)nc2)o1 [I.225, 5-[5-(difluoromethyl)-1,3,4-oxadiazol-2-yl]-N-[1-(2-thienyl)cyclopentyl]pyrimidin-2-amine] | 3.45 |  |  |
| Fc1ccc(Oc2ncc(-c3nnc(C(F)F)o3)cn2)cc1 [Example I-098] |  | 2.51 |  |
| Fc1cccc(F)c1C1(Nc2ncc(-c3nnc(C(F)F)o3)cn2)CC1 [I.164, 5-[5-(difluoromethyl)-1,3,4-oxadiazol-2-yl]-N-[1-(2,6-difluorophenyl)cyclopropyl]pyrimidin-2-amine] |  |  | chromatographic logP [1]: 2.95 |
| FC(F)c1nnc(-c2cnc(-c3cncc(Cl)c3)nc2)o1 [I.103, 2-(5-chloropyridin-3-yl)-5-[5-(difluoromethyl)-1,3,4-oxadiazol-2-yl]pyrimidine] |  |  | chromatographic logP [1]: 2.59 |
| Cc1noc(C)c1-c1ncc(-c2nnc(C(F)F)o2)cn1 [Example I-081] |  | 2.57 |  |
| Cc1ccccc1C(C)(C)Nc1ncc(-c2nnc(C(F)F)o2)cn1 [I.205, 5-[5-(difluoromethyl)-1,3,4-oxadiazol-2-yl]-N-[2-(2-methylphenyl)propan-2-yl]pyrimidin-2-amine] | 3.28 |  |  |
| CC(Nc1ncc(-c2nnc(C(F)F)o2)cn1)c1ccc(Cl)nc1 (racemic) [I.214, N-[(1RS)-1-(6-chloropyridin-3-yl)ethyl]-5-[5-(difluoromethyl)-1,3,4-oxadiazol-2-yl]pyrimidin-2-amine] |  |  | chromatographic logP: 2.27 |
